From patent publication US9815819B2, “Complement pathway modulators and uses thereof” (priority 2012, dated 2017) come the findings set out here.

The target in this test is Recombinant human factor D (Homo sapiens (Human), UniProt P00746). Briefly: Human Complement Factor D Assay: Method 1. It is filed as biochemical. To be noted: Factor D inhibition, Method 1: 10 nM factor D, 1 hour incubation with compound at room temperature, substrate Z-Lys-thiobenzyl, fluorescence readout; read-out: IC50.
Chain of Recombinant human factor D (P00746 26-253): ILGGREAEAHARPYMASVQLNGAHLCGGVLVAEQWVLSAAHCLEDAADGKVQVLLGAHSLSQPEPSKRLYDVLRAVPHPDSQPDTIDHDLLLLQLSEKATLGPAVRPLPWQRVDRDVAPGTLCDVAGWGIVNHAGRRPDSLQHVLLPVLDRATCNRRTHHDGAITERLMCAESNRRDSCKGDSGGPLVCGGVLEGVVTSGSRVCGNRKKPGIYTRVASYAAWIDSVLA
With `CCc1cc2c(C(N)=O)nn(CC(=O)N3[C@@H]4C[C@@H]4C[C@H]3C(=O)N[C@@H]3C[C@H]3c3ccccc3Cl)c2cn1` [Example 68, 1-(2-{(1R,3S,5R)-3-[(1R,2S)-2-(2-Chloro-phenyl)-cyclopropylcarbamoyl]-2-aza-bicyclo[3.1.0]hex-2-yl}-2-oxo-ethyl)-5-ethyl-1H-pyrazolo[3,4-c]pyridine-3-carboxylic acid amide], the concentration for half-maximal inhibition (IC50) was 37 nM. The figure for `Cc1cc2c(C(N)=O)nn(CC(=O)N3[C@@H]4C[C@@H]4C[C@H]3C(=O)N[C@@H]3C[C@H]3c3ccccc3F)c2cn1` [Example 70, 1-(2-{(1R,3S,5R)-3-[(1R,2S)-2-(2-Fluoro-phenyl)-cyclopropylcarbamoyl]-2-aza-bicyclo[3.1.0]hex-2-yl}-2-oxo-ethyl)-5-methyl-1H-pyrazolo[3,4-c]pyridine-3-carboxylic acid amide] is 125 nM; for `Cc1cc2c(C(N)=O)nn(CC(=O)N3C[C@H](F)C[C@H]3C(=O)N[C@@H]3C[C@H]3c3ccccc3F)c2cn1` [Example 71, 1-(2-{(2S,4R)-4-Fluoro-2-[(1R,2S)-2-(2-fluoro-phenyl)-cyclopropylcarbamoyl]-pyrrolidin-1-yl}-2-oxo-ethyl)-5-methyl-1H-pyrazolo[3,4-c]pyridine-3-carboxylic acid amide] it is 90 nM; for `NC(=O)c1nn(CC(=O)N2C[C@H](F)C[C@H]2C(=O)N[C@@H]2C[C@H]2c2ccc(Cl)cc2)c2cnccc12` [Example 72, 1-(2-{(2S,4R)-2-[(1R,2S)-2-(4-Chloro-phenyl)-cyclopropylcarbamoyl]-4-fluoro-pyrrolidin-1-yl}-2-oxo-ethyl)-1H-pyrazolo[3,4-c]pyridine-3-carboxylic acid amide] it is 309 nM. The figure for `Cc1cc2c(C(N)=O)nn(CC(=O)N3[C@@H]4C[C@@H]4C[C@H]3C(=O)N[C@@H]3C[C@H]3c3ccccc3Cl)c2cn1` [Example 73, 1-(2-{(1R,3S,5R)-3-[(1R,2S)-2-(2-Chloro-phenyl)-cyclopropylcarbamoyl]-2-aza-bicyclo[3.1.0]hex-2-yl}-2-oxo-ethyl)-5-methyl-1H-pyrazolo[3,4-c]pyridine-3-carboxylic acid amide] is 45 nM; for `CC(=O)c1nn(CC(=O)N2[C@@H]3C[C@@H]3C[C@H]2C(=O)N[C@@H]2C[C@H]2c2ccccc2F)c2cc(C(=O)O)ccc12` [Example 87, 3-Acetyl-1-(2-{(1R,3S,5R)-3-[(1R,2S)-2-(2-fluoro-phenyl)-cyclopropylcarbamoyl]-2-aza-bicyclo[3.1.0]hex-2-yl}-2-oxo-ethyl)-1H-indazole-6-carboxylic acid] it is 46 nM.
